Assay results published in paper PMC11808397, “Development of selective nanomolar cyclic peptide ligands as GBA1 enzyme stabilisers” (RSC Chemical Biology, 2025).

Experiments:
[1] = target: T1, recombinant human GBA1 (rhGBA1, Cerezyme) (Homo sapiens, UniProt P04062, R534H); assay: Thermostability of rhGBA1, label-free differential scanning fluorimetry (Tycho NT.6); format: binding; settings: rhGBA1 at 1 μM, 20 mM HEPES pH 7.0, 100 mM NaCl, 0.5% DMSO, 2 h room temperature; N. D. = not determined due to a lack of stabilisation effect
T1 construct: purchased Cerezyme
T1 sequence (P04062 40-536 R534H): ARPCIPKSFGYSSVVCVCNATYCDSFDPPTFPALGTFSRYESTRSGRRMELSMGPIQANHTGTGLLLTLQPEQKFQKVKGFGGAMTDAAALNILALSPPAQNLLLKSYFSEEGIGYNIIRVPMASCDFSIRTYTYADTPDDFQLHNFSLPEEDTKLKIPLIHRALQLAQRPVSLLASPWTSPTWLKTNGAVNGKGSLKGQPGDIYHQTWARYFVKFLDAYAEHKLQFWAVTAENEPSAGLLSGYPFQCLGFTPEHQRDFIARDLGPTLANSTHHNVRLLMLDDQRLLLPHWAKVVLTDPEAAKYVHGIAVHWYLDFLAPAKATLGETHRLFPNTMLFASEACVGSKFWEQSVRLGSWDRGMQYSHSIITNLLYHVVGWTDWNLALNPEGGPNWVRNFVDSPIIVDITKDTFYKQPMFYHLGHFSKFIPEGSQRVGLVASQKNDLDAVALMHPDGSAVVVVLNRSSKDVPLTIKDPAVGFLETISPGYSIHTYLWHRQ
Description: Samples were incubated at room temperature for 2
hours before measurement in the Tycho NT6.
Thermostability assays in rhGBA (Cerezyme)
Varying concentrations of peptides were incubated with 1 µM rhGBA1 in 20 mM HEPES pH 7.0 with 100 mM NaCl, with a final DMSO concentration of 0.5 %, for 2 hours at room temperature. Melting

[2] = tested on: rhGBA1 (Cerezyme) in plasma; assay: Stabilisation of rhGBA1 in plasma, 4-MU activity; format: biochemical, human; settings: rhGBA1 10 nM in plasma, peptides 0.001-10 μM or Ambroxol 100-1000 μM, 0-120 minutes, 0.5% DMSO
Description: We then investigated whether peptides L4, D8, and D12 could stabilise rhGBA1 in plasma. […] The solutions were then incubated with 4-MU-β-D-Glu for an additional 30 minutes, and the remaining rhGBA1 activity was determined.
Specifically, high concentrations of all peptides (10–1 μM) led to enzyme binding but also GBA1 inhibition after short incubations (0 to 30 minutes). […] To discard potential degradation of D8 and D12 during plasma experiments, the peptides were incubated in plasma at 0.1 μM for 2 hours, followed by the addition of rhGBA1 to measure its activity. This was compared to controls where D8 and D12 were added to plasma and directly tested for GBA1 activity.
Fig. 3 Stabilisation of rhGBA1 (10 nM) in plasma by cyclic peptides D8 and D12. […] Control contained 0.5% DMSO. Error ranges depict standard deviations from n = 3 replicates, measured in technical duplicates. *p < 0.05, **p < 0.01, ***p < 0.001.
Selective Cyclic Peptide Ligands as GBA1 Stabilizers Katzy et al. curves were determined in triplicate using the Tycho NT.6 (NanoTemper), according to manufacturer […]
2.9. Cerezyme Stabilization studies in plasma […]
Specific GBA1 activity was determined as described above, with 25 µL of sample incubated for 30 min with 3.7 mM 4MU-β-Glc substrate.

## Nc1c(Br)cc(Br)cc1CN[C@H]1CC[C@H](O)CC1 [Ambroxol, reference compound]
[1]
  ΔTi,max: 12.3 ± 5.4 °C
[2]
  stabilisation of rhGBA1 against degradation in plasma: no stabilisation effect
